Reference: patent US8129371B2, “Thienopyrimidine and pyrazolopyrimidine compounds and their use as mTOR kinase and PI3 kinase inhibitors” (Wyeth LLC, priority 2007, dated 2012)

Columns and labels:
Human mTOR (FLAG-TOR) = target: T1, Human mTOR (FLAG-TOR) (Homo sapiens, UniProt P42345); assay: Human mTOR kinase assay with purified enzyme, DELFIA format; type: biochemical
T1 construct: FLAG
Method in brief: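 Purified FLAG-mTOR in HEPES pH 7.4 buffer with 10 mM MnCl2 was preincubated with inhibitor and reacted 2 h at room temperature with His6-S6K substrate, then stopped with EDTA/EGTA. Phospho-T389 S6K detected by DELFIA with Eu-labelled antibody (40 ng/mL) after plate capture; inhibition computed from signal.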

PI3K [1] = target: T2, PI3K (Homo sapiens, UniProt P42336); assay: Fluorescence polarization assay for PI3K; type: biochemical; conditions: PI3 Kinase α; read-out: PI3 Kinase α IC50
T2 construct: PI3 Kinase α IC50; other: PI3 Kinase α; other: PI3 Kinase α isoform, fluorescence polarization
T2 sequence (P42336 whole entry, canonical isoform): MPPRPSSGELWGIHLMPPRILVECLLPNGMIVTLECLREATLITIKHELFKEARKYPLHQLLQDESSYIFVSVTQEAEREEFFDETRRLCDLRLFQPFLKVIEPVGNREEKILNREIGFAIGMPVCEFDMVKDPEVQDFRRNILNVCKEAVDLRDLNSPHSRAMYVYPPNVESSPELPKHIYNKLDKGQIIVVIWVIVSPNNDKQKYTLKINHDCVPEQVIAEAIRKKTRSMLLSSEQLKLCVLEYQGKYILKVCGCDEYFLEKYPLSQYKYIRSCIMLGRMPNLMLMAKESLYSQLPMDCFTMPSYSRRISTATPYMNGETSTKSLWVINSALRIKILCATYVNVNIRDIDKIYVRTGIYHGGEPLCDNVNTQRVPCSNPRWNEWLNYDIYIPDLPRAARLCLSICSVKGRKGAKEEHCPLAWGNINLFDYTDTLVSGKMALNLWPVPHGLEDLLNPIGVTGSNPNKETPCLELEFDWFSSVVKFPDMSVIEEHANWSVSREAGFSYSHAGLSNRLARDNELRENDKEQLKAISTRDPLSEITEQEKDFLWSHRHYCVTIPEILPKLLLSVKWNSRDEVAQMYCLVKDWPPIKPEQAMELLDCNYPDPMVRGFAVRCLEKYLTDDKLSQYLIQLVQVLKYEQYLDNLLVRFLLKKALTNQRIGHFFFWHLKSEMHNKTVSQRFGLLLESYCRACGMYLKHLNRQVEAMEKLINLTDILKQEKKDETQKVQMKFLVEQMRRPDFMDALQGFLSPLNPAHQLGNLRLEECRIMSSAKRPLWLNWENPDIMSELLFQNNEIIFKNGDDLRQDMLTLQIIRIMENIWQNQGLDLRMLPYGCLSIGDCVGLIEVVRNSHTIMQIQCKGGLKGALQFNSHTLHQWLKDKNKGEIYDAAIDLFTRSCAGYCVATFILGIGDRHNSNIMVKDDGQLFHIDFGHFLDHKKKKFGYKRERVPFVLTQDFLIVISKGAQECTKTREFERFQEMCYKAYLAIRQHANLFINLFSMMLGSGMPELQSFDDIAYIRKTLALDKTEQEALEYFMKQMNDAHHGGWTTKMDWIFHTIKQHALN
Method in brief: (§1)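 PI3K was preincubated with compound (final DMSO 1%), and the reaction was started with PIP2/ATP substrate and run 30–60 min. It was stopped with a detector mix giving 10 nM red probe and 70 nM GST-GRP.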

PI3K [2] = target: T3, PI3K (Homo sapiens, UniProt P48736); assay: Fluorescence polarization assay for PI3K; type: biochemical; conditions: PI3 Kinase γ; read-out: PI3 Kinase γ IC50
T3 construct: PI3 Kinase γ IC50; other: PI3 Kinase γ; other: PI3 Kinase γ isoform, fluorescence polarization
T3 sequence (P48736 whole entry, canonical isoform): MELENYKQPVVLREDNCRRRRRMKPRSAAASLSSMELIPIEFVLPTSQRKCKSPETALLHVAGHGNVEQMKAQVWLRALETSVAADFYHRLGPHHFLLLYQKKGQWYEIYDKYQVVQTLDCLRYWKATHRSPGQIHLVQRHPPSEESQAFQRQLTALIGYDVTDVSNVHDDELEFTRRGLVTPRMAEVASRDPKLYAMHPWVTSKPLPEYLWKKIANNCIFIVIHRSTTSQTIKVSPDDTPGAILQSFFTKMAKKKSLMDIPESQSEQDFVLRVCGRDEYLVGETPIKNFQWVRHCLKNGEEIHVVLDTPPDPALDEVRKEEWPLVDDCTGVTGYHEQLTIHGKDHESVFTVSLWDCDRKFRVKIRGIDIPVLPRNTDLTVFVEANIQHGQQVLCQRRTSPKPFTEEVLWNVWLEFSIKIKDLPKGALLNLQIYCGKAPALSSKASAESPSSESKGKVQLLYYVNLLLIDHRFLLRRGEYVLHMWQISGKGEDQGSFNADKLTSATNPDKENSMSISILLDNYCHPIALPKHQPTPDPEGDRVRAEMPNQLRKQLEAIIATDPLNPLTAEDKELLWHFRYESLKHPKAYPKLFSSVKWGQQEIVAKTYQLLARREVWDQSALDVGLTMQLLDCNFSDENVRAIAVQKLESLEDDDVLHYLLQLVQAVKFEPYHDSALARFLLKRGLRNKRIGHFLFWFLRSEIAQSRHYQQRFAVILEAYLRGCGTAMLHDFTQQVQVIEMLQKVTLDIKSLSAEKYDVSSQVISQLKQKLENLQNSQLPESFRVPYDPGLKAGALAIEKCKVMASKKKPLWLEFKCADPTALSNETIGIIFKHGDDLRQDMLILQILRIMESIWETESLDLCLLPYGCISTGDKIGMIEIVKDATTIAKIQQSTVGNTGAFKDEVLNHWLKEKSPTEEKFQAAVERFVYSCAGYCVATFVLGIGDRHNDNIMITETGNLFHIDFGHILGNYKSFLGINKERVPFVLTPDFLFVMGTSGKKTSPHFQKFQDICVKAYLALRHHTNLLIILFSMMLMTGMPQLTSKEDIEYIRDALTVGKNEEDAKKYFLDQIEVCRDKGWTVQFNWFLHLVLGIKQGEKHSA
Method in brief: as §1

breast line MDA468 = assay: In vitro cell culture growth assay (MTS), MDA468; type: cell-based; conditions: Homo sapiens, 72 h, MDA468 cells, three days after drug treatment
Method in brief: (§2)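 Following a one-day attachment period, cells received inhibitors for 3 days. MTS metabolism by viable cells was quantified at 490 nm absorbance and converted to percent of same-plate vehicle control growth.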

prostate line LNCap = assay: In vitro cell culture growth assay (MTS), LNCap; type: cell-based; conditions: Homo sapiens, LNCaP, 72 h, LNCap cells, three days after drug treatment
Method in brief: as §2

SMILES	IC50 (Human mTOR (FLAG-TOR)) [nM]	IC50 (PI3K [1]) [nM]	IC50 (PI3K [2]) [nM]	IC50 (breast line MDA468) [nM]	IC50 (prostate line LNCap) [nM]
O=C(Nc1ccc(CCO)cc1)Nc1ccc(-c2nc(N3CC4CCC(C3)O4)c3cnn(CC(F)(F)F)c3n2)cc1 [Example 260, 1-[4-(2-hydroxyethyl)phenyl]-3-{4-[4-(8-oxa-3-azabicyclo[3.2.1]oct-3-yl)-1-(2,2,2-trifluoroethyl)-1H-pyrazolo[3,4-d]pyrimidin-6-yl]phenyl}urea]	0.111	98	440	< 1	< 1
CN1CCN(c2ccc(NC(=O)Nc3ccc(-c4nc(N5CC6CCC(C5)O6)c5cnn(CC(F)(F)F)c5n4)cc3)cn2)CC1 [Example 262, 1-[6-(4-methylpiperazin-1-yl)pyridin-3-yl]-3-{4-[4-(8-oxa-3-azabicyclo[3.2.1]oct-3-yl)-1-(2,2,2-trifluoroethyl)-1H-pyrazolo[3,4-d]pyrimidin-6-yl]phenyl}urea]	0.515	191	1360	5	1
O=C(Nc1ccc(OCCO)cc1)Nc1ccc(-c2nc(N3CC4CCC(C3)O4)c3cnn(CC(F)(F)F)c3n2)cc1 [Example 263, 1-[4-(2-hydroxyethoxy)phenyl]-3-{4-[4-(8-oxa-3-azabicyclo[3.2.1]oct-3-yl)-1-(2,2,2-trifluoroethyl)-1H-pyrazolo[3,4-d]pyrimidin-6-yl]phenyl}urea]	0.215	147	10400	5	< 1
O=C(Nc1ccc(-c2nc(N3CC4CCC(C3)O4)c3cnn(C4CCN(Cc5ccccc5)CC4)c3n2)cc1)OCCO [Example 264, 2-hydroxyethyl {4-[1-(1-benzylpiperidin-4-yl)-4-(8-oxa-3-azabicyclo[3.2.1]oct-3-yl)-1H-pyrazolo[3,4-d]pyrimidin-6-yl]phenyl}carbamate]	2.9	1690	8840	700	38
O=C(Nc1ccc(-c2nc(N3CC4CCC(C3)O4)c3cnn(C4CCN(CC(F)(F)F)CC4)c3n2)cc1)NC1CC1 [Example 265, 1-cyclopropyl-3-(4-{4-(8-oxa-3-azabicyclo[3.2.1]oct-3-yl)-1-[1-(2,2,2-trifluoroethyl)piperidin-4-yl]-1H-pyrazolo[3,4-d]pyrimidin-6-yl}phenyl)urea]	1.2	3470	> 10000	700	18
O=C(Nc1ccc(-c2nc(N3C4CCC3COC4)c3cnn(CC(F)(F)F)c3n2)cc1)OCCO [Example 266, 2-hydroxyethyl {4-[4-(3-oxa-8-azabicyclo[3.2.1]oct-8-yl)-1-(2,2,2-trifluoroethyl)-1H-pyrazolo[3,4-d]pyrimidin-6-yl]phenyl}carbamate]	0.615	2720	> 10000	180	27
CNC(=O)Nc1ccc(-c2nc(N3C4CCC3COC4)c3cnn(CC(F)(F)F)c3n2)cc1 [Example 267, 1-methyl-3-{4-[4-(3-oxa-8-azabicyclo[3.2.1]oct-8-yl)-1-(2,2,2-trifluoroethyl)-1H-pyrazolo[3,4-d]pyrimidin-6-yl]phenyl}urea]	0.565	1370	9000	40	9
O=C(Nc1ccc(-c2nc(N3C4CCC3COC4)c3cnn(CC(F)(F)F)c3n2)cc1)Nc1cccnc1 [Example 268, 1-{4-[4-(3-oxa-8-azabicyclo[3.2.1]oct-8-yl)-1-(2,2,2-trifluoroethyl)-1H-pyrazolo[3,4-d]pyrimidin-6-yl]phenyl}-3-pyridin-3-ylurea]	0.2	227	3010	3	< 1
O=C(Nc1ccc(CO)cc1)Nc1ccc(-c2nc(N3C4CCC3COC4)c3cnn(CC(F)(F)F)c3n2)cc1 [Example 269, 1-[4-(hydroxymethyl)phenyl]-3-{4-[4-(3-oxa-8-azabicyclo[3.2.1]oct-8-yl)-1-(2,2,2-trifluoroethyl)-1H-pyrazolo[3,4-d]pyrimidin-6-yl]phenyl}urea]	0.079	117	2130	< 1	< 1
CN1CCN(c2ccc(NC(=O)Nc3ccc(-c4nc(N5C6CCC5COC6)c5cnn(CC(F)(F)F)c5n4)cc3)cc2)CC1 [Example 270, 1-[4-(4-methylpiperazin-1-yl)phenyl]-3-{4-[4-(3-oxa-8-azabicyclo[3.2.1]oct-8-yl)-1-(2,2,2-trifluoroethyl)-1H-pyrazolo[3,4-d]pyrimidin-6-yl]phenyl}urea]	0.52	371	9500	1	< 1
O=C(Nc1ccc(-c2nc(N3C4CCC3COC4)c3cnn(CC(F)(F)F)c3n2)cc1)NC1CC1 [Example 271, 1-cyclopropyl-3-{4-[4-(3-oxa-8-azabicyclo[3.2.1]oct-8-yl)-1-(2,2,2-trifluoroethyl)-1H-pyrazolo[3,4-d]pyrimidin-6-yl]phenyl}urea]	0.355	3680	9000	80	7
O=C(Nc1ccc(CCO)cc1)Nc1ccc(-c2nc(N3C4CCC3COC4)c3cnn(CC(F)(F)F)c3n2)cc1 [Example 272, 1-[4-(2-hydroxyethyl)phenyl]-3-{4-[4-(3-oxa-8-azabicyclo[3.2.1]oct-8-yl)-1-(2,2,2-trifluoroethyl)-1H-pyrazolo[3,4-d]pyrimidin-6-yl]phenyl}urea]	0.106	132	1150	1	< 1
O=C(Nc1ccc(-c2nc(N3C4CCC3COC4)c3cnn(CC(F)(F)F)c3n2)cc1)Nc1ccc(N2CCOCC2)cc1 [Example 273, 1-(4-morpholin-4-ylphenyl)-3-{4-[4-(3-oxa-8-azabicyclo[3.2.1]oct-8-yl)-1-(2,2,2-trifluoroethyl)-1H-pyrazolo[3,4-d]pyrimidin-6-yl]phenyl}urea]	0.24	618	> 10000	10	1
O=C(Nc1ccc(-c2nc(N3C4CCC3COC4)c3cnn(CC(F)(F)F)c3n2)cc1)Nc1ccc(N2CCOCC2)nc1 [Example 274, 1-(6-morpholin-4-ylpyridin-3-yl)-3-{4-[4-(3-oxa-8-azabicyclo[3.2.1]oct-8-yl)-1-(2,2,2-trifluoroethyl)-1H-pyrazolo[3,4-d]pyrimidin-6-yl]phenyl}urea]	0.245	1210	7310	20	< 1
CN(C)CCOc1ccc(NC(=O)Nc2ccc(-c3nc(N4C5CCC4COC5)c4cnn(CC(F)(F)F)c4n3)cc2)cc1 [Example 275, 1-{4-[2-(dimethylamino)ethoxy]phenyl}-3-{4-[4-(3-oxa-8-azabicyclo[3.2.1]oct-8-yl)-1-(2,2,2-trifluoroethyl)-1H-pyrazolo[3,4-d]pyrimidin-6-yl]phenyl}urea]	0.575	275	3110	< 1	< 1
CCn1ncc2c(N3CC4CCC(C3)O4)nc(-c3ccc(NC(=O)NCC(=O)N4CCN(C)CC4)cc3)nc21 [Example 276, 1-{4-[1-ethyl-4-(8-oxa-3-azabicyclo[3.2.1]oct-3-yl)-1H-pyrazolo[3,4-d]pyrimidin-6-yl]phenyl}-3-[2-(4-methylpiperazin-1-yl)-2-oxoethyl]urea]	93	3980	9000	30000	7500
CCn1ncc2c(N3CC4CCC(C3)O4)nc(-c3ccc(NC(=O)NCCC(=O)N4CCN(C)CC4)cc3)nc21 [Example 277, 1-{4-[1-ethyl-4-(8-oxa-3-azabicyclo[3.2.1]oct-3-yl)-1H-pyrazolo[3,4-d]pyrimidin-6-yl]phenyl}-3-[3-(4-methylpiperazin-1-yl)-3-oxopropyl]urea]	110	2950	> 10000	8000	3500
CCn1ncc2c(N3CC4CCC(C3)O4)nc(-c3ccc(NC(=O)NCC(=O)NCCN(C)C)cc3)nc21 [Example 278]	42	311	494	5200	2200
CCn1ncc2c(N3CC4CCC(C3)O4)nc(-c3ccc(NC(=O)NCCC(=O)NCCN(C)C)cc3)nc21 [Example 279]	23.5	1830	8110	6000	3200
CCn1ncc2c(N3CC4CCC(C3)O4)nc(-c3ccc(NC(=O)Nc4ccc(N5CCCC5)cc4)cc3)nc21 [Example 280, 1-{4-[1-ethyl-4-(8-oxa-3-azabicyclo[3.2.1]oct-3-yl)-1H-pyrazolo[3,4-d]pyrimidin-6-yl]phenyl}-3-(4-pyrrolidin-1-ylphenyl)urea]	6	1440	8210	120	55
CCn1ncc2c(N3CC4CCC(C3)O4)nc(-c3ccc(NC(=O)Nc4ccc(OCCO)cc4)cc3)nc21 [Example 281, 1-{4-[1-ethyl-4-(8-oxa-3-azabicyclo[3.2.1]oct-3-yl)-1H-pyrazolo[3,4-d]pyrimidin-6-yl]phenyl}-3-[4-(2-hydroxyethoxy)phenyl]urea]	1.07	173	1100	19	4
